The text below walks through data of US5834259A, “Process and composition for preparing D-aspartic acid” (Monsanto Company, priority 1996, dated 1998).

This data set addresses T1, L-aspartate-α-decarboxylase (Escherichia coli, UniProt P0A790).
T1 construct: expressed in transfected cells; host or cells: E. coli W3110 transformed with pIF309 = strain NS3291 (ATCC 98675), whole cells
Description: NH4OH neutralized 1.0M D/L-aspartate substrate (Example 7). The class given is biochemical, E. coli K12. To be noted: for concentration in supernatant fluid / percent remaining: 1.0M, NH4OH neutralized, 37° C. Here is the method:
Cells were stored frozen at -80° C. 133.1 g (1 mol) D/L-aspartic acid was dissolved in approximately 600 ml deionized H2 O and adjusted to a pH of about 7 with concentrated NH4 OH. The final volume of substrate was brought to 963 ml to which was added 137 ml cells, freshly thawed. The mixture was placed in the 2 L fermentor and the temperature adjusted to 37° C. No automatic pH control was used, however, the pH was monitored as samples were removed and the pH adjusted with 50% NH4 OH. Samples, approximately 1 ml, were removed periodically, centrifuged, and the supernatant fluid was stored frozen prior to diluting and HPLC analysis.

T1 sequence (P0A790 25-126): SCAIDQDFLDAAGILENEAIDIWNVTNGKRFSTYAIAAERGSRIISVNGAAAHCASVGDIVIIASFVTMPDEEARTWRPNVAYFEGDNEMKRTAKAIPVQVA
T1 sequence (P0A790 1-24): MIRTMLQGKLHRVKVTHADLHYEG

`N[C@@H](CC(=O)O)C(=O)O` [L-Asp, L-aspartic acid]: the “concentration in supernatant fluid” value by setting is: (0.0000 hr) 55.740 mg/mL; (3.0000 hr) 53.380 mg/mL; (6.0000 hr) 56.370 mg/mL; (9.0000 hr) 56.680 mg/mL; (19.000 hr) 59.270 mg/mL; (23.500 hr) 54.930 mg/mL. Moreover, the “concentration in supernatant fluid” value (28.000 hr) was determined as 52.620 mg/mL, the “concentration in supernatant fluid” value (32.500 hr) amounted to 50.900 mg/mL and the “concentration in supernatant fluid” value (43.000 hr) was 53.520 mg/mL. Further, the percent remaining worked out at 95.766% (3.0000 hr); 101.13% (6.0000 hr); 101.69% (9.0000 hr); 106.33% (19.000 hr); 98.547% (23.500 hr); 94.403% (28.000 hr). The percent remaining turned out to be 91.317% (32.500 hr), 96.017% (43.000 hr) and 91.676% (49.000 hr). Further, for the setting “NH4+ salt as compared to the Na+ salt”, the “rate of L-Asp utilization” value was “slower”.
As to `N[C@H](CC(=O)O)C(=O)O` [D-Asp, D-aspartic acid], the “concentration in supernatant fluid” value is, setting by setting: (0.0000 hr) 55.260 mg/mL; (3.0000 hr) 54.670 mg/mL; (6.0000 hr) 49.100 mg/mL; (9.0000 hr) 47.810 mg/mL; (19.000 hr) 43.490 mg/mL; (23.500 hr) 39.120 mg/mL. In addition, the “concentration in supernatant fluid” value by setting is: (28.000 hr) 36.290 mg/mL; (32.500 hr) 33.540 mg/mL; (43.000 hr) 30.370 mg/mL; (49.000 hr) 21.580 mg/mL. Moreover, the percent remaining by setting is: (3.0000 hr) 98.932%; (6.0000 hr) 88.853%; (9.0000 hr) 86.518%; (19.000 hr) 78.701%; (23.500 hr) 70.793%; (28.000 hr) 65.671%. Besides, the percent remaining turned out to be 60.695% (32.500 hr), 54.958% (43.000 hr) and 39.052% (49.000 hr).
